Patent US4719211A, “2,3,4,9-tetrahydro-2-heteroarylalkyl-1H-pyrido(3,4-B)indoles having antihypertensive properties” (American Home Products Corporation, priority 1986, dated 1988)
Where a name gives a salt, the structure may show the parent alone.

Columns and labels:
[1] = test system: rats; assay: Conditioned avoidance response procedure (response lever); assay type: in vivo; conditions: ip, rat, i.p.; for ED50: read-out: AB50 (dose producing 50% block in avoidance responding)
Method: In conditioned avoidance response type procedures, the effect of the drug on the subject animals previously trained ability to avoid and/or escape a shock is measured. […] If the compound blocks the subject animal's ability to escape the shock, then the compound is judged to have a sedative effect.
In this procedure, rats trained previously are placed in plexiglass experimental chambers equipped with a response lever, house light, and sonalert. A steel grid floor is wired for presentation of electric shock. Each trial consists of a fifteen-second warning tone (conditioned stimulus), continuing for an additional fifteen seconds accompanied by electric shock, (unconditioned stimulus). The rat can terminate a trial at any point by depression of the response lever. A response during the initial fifteen-second warning tone ends the trial before shock delivery and is considered an avoidance response, while a response occuring during shock delivery is an escape response. Trials are presented on a variable interval schedule of two minutes. The session consists of sixty trials. Animals are run two to three times weekly with control sessions always preceding a drug run, and with at least one day intervening, compounds are administered i.p. (p.o., s.c.) at appropriate pre-treatment times to a minimum of five to six rats at each dose level over a range of doses.
The following experimental parameters are recorded by computer: (1) the number of intertrial interval responses, (2) the number of avoidance responses, (3) the number of escape responses, and (4) the number of trials in which no response occured.
Response counts are summed over all subjects at a given dose. […] This number is expressed as a percentage of the total trials. Control performance is assumed to be 100% for avoidance and escape responding and the dose calculated to produce a 50% block in avoidance responding (AB50) is obtained from a dose-effect regression line fitted by the method of least squares. […] If both AB50 's and EB20 's can be calculated, a dose ratio can be determined according to the following formula: […]

[2] = test system: spontaneously hypertensive rat (SHR); assay: Antihypertensive effect: change in systolic blood pressure in spontaneously hypertensive rats (tail plethysmography); assay type: in vivo
Method: The systolic blood pressure of male conscious, spontaneously hypertensive rat (SHR) (Taconic Farms) is measured by indirect tail plethysmography using a system designed and built by Narco Bio-Systems-(Model MK-IV). Groups consisting of 4 rats receive a single oral dose of the test compound. Rats are warmed in a heated chamber at 38° C. for 10 minutes prior to measurement of systolic pressure to increase the accuracy of measurements.
The systolic pressure and heart rate data are collected in an Hewlett Packard 88 computer. Data are grouped and summarized, with the mean change in pressure and heart rate at each time period calculated.
Unless otherwise noted, the compound was tested in the form in which it was obtained in the example.

[3] = biological target: T1, limbic D-2 dopamine receptor (Rattus norvegicus, UniProt P61169); assay: Inhibition of limbic D-2 dopamine receptor binding (3H-spiroperidol, rat limbic brain homogenate); conditions: 0.3 nM 3H-spiroperidol, read-out: Ki (and 95% confidence interval)
T1 construct: Limbic brain tissue (nucleus accumbens, septal area, olfactory tubercle) is dissected and homogenized on ice; from tissue; host or cells: rat limbic brain tissue (nucleus accumbens, septal area, olfactory tubercle), washed membrane homogenate
T1 sequence (P61169 whole entry): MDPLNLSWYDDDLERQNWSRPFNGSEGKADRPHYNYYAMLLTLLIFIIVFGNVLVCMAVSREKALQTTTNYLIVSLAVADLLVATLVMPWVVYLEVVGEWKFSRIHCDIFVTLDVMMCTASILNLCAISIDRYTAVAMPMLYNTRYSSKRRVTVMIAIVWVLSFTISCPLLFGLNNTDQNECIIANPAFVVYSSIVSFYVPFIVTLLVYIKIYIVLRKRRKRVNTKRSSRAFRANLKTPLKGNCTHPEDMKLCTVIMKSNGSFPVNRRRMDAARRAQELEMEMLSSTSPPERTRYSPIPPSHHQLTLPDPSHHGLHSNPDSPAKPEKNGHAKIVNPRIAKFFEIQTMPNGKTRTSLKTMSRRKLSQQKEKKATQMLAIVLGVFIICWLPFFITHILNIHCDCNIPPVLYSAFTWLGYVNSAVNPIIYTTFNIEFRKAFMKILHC
Method: Several rats are decapitated and the brains are rapidly removed. […] The homogenate is then diluted 4-fold with buffer and centrifuged at 30,000×g for 20 min, and the supernatant is discarded. The pellet is resuspended in the same volume of buffer and recentrifuged as before, again discarding the supernatant. This pellet is then resuspended in the same volume of buffer used in the homogenization, and the protein content of this preparation is assayed by the Lowry method. The homogenate is stored frozen at -70° C. until use.
The vials are then counted in a Packard 460CD scintillation counter.
Specific binding is defined as total binding less binding in the presence of 1 μM (+)butaclamol. Binding in the presence of various concentrations of test drug is expressed as a percent of specific binding when no drug is present. […] Linear regression analysis then yields a straight line with 95% confidence limits from which an IC50 can be inversely predicted. Ki (inhibition constant) for the test drug is then calculated by the formula: [formula]

[4] = test system: male CF-1 mice; assay: Antagonism of apomorphine-induced stereotyped behavior in mice; assay type: in vivo, mouse; conditions: apomorphine 10 mg/kg s.c.
Method: In the second procedure, the compound's (drug's) abiltiy to antagonize apomorphine-induced stereotyped behavior in mice is measured. In the procedure, 20-25 g male CF-1 mice (Charles River) are tested one week before the experiment for a positive stereotyped response to 10 mg/kg s.c. apomorphine. Test compounds, suspended or solubilized in 0.25% Tween 80 ® in water, are administered at several dose levels to male mice (6/dose level). A control group, run simultaneously with drug groups, receives equal volumes of solvent. Thiry minutes later (i.p. administration) or 60 minutes later (p.o administration), drug-treated and control mice are challenged with 10 mg/kg apomorphine s.c. Five minutes after the injection, the rearing-head-bobbing-licking syndrome induced by apomorphine is recorded as present or absent for each animal. Readings are repeated every 5 minutes during a 30 minute test session. The number of positive or negative 5-minute intervals during which apoomorphine-induced stereotyped behavior is present or absent. ED50 values (with 95% confidence intervals) are calculated for inhibition of apomorphine-inducedstereotyped behavior, by a simple linear regression analysis with inverse prediction.

[5] = SHR, single oral dose 50 mg/kg, 1.5 hrs.
[6] = SHR, single oral dose 50 mg/kg, 4 hrs.
[7] = SHR, single oral dose 10 mg/kg, 1.5 hrs.
[8] = SHR, single oral dose 10 mg/kg, 4 hrs.

Row | Structure (SMILES) | ED50 [1] [mg/kg] | Change in Blood Pressure [2, 5] | Change in Blood Pressure [2, 6] | other results
1 | Cl.Cl.c1ccc2nc(CCCCN3CCc4c([nH]c5ccccc45)C3)ccc2c1 [Example 8, 2,3,4,9-Tetrahydro-2-[4-(2-Quinolinyl)butyl]1H-Pyrido[3,4-b]Indole, Dihydrochloride] | 31 | – | – | –
2 | c1ccc(CCN2CCc3c([nH]c4ccccc34)C2)nc1 [Example 9, 2,3,4,9-Tetrahydro-2-[2-(2-Pyridinyl)ethyl]-1H-pyrido[3,4-b]-indole, Dihydrochloride.] | 22.6 | – | – | –
3 | Cl.Cl.c1ccc2c(CCCCN3CCc4c([nH]c5ccccc45)C3)ccnc2c1 [Example 6, 2,3,4,9-Tetrahydro-2-[4-(4-Quinolinyl)butyl]-1H-Pyrido[3,4-b]Indole, Dihydrochloride] | – | -94 mm of Hg. | – | –
4 | Cl.Cl.c1ccc2c3c([nH]c2c1)CN(CCc1cnccn1)CC3 [Example 7, 2,3,4,9-Tetrahydro-2-[2-(2Pyrazinyl)ethyl]-1H-Pyrido[3,4-b]Indole, Dihydrochloride] | – | -110 mm of Hg. | -104 mm of Hg. | Change in Blood Pressure ([2]; SHR, single oral dose 5 mg/kg, 1.5 hrs.): -14 mm of Hg.
5 | Cl.Cl.c1ccc2c3c([nH]c2c1)CN(CCc1ccncc1)CC3 [Example 2, 2,3,4,9-Tetrahydro-2-[2-(4-Pyridinyl)ethyl]-1H-Pyrido[3,4-b]Indole, Dihydrochloride] | – | -79 mm of Hg. | -57 mm of Hg. | Change in Blood Pressure [2, 7]: -73 mm of Hg.; Change in Blood Pressure [2, 8]: -30 mm of Hg.; Change in Blood Pressure ([2]; SHR, single oral dose 25 mg/kg, 1.5 hrs.): -18 mm of Hg.; Change in Blood Pressure ([2]; SHR, single oral dose 25 mg/kg, 4 hrs.): -58 mm of Hg.
6 | Cl.Cl.O.c1ccc2c3c([nH]c2c1)CN(CCCCCCCc1ccncc1)CC3 [Example 3, 2,3,4,9-Tetrahydro-2-[7-(4-Pyridinyl)heptyl]-1H-Pyrido[3,4-b]Indole, Dihydrochloride Hydrate] | – | -44 mm of Hg. | -58 mm of Hg. | –
7 | Cl.Cl.c1ccc2nc(CN3CCc4c([nH]c5ccccc45)C3)ccc2c1 [2,3,4,9-tetrahydro-2-(2-quinolinylmethyl)-1H-pyrido[3,4-b]-indole, dihydrochloride, reference compound] | – | – | – | Change in Blood Pressure ([2]; 50 mg/kg, time not stated, did not lower blood pressure significantly): -10 mm Hg
8 | Cl.Cl.c1ccc2c3c([nH]c2c1)CN(CCCCc1ccncc1)CC3 [Example 4, 2,3,4,9-Tetrahydro-2-[4-(4-Pyridinyl)butyl]-1H-Pyrido[3,4-b]Indole Dihydrochloride] | 14.1 | -105 mm of Hg. | -115 mm of Hg. | Change in Blood Pressure [2, 7]: -43 mm of Hg.; Change in Blood Pressure [2, 8]: -39 mm of Hg.
9 | c1ccc2c3c([nH]c2c1)CN(Cc1ccncc1)CC3 [Example 1, 2,3,4,9-Tetrahydro-2-(4-Pyridinylmethyl)-1H-Pyrido-[3,4-b]Indole, Dihydrochloride Hemihydrate] | – | -27 mm of Hg. | -35 mm of Hg. | –
10 | Cl.Cl.c1cncc(CCCN2CCc3c([nH]c4ccccc34)C2)c1 [Example 13, 2,3,4,9-Tetrahydro-2-[3-(3-Pyridinyl)propyl]1H-pyrido[3,4-b]indole, dihydrochloride] | 20.9 | – | – | –
11 | Cl.Cl.c1ccc2nc(CCN3CCc4c([nH]c5ccccc45)C3)ccc2c1 [Example 5, 2,3,4,9-Tetrahydro-2-[2-(2-Quinolinyl)ethyl]-1H-Pyrido[3,4-b]Indole Dihydrochloride] | – | -98 mm of Hg. | -84 mm of Hg. | Change in Blood Pressure [2, 7]: -25 mm of Hg.; Ki [3]: 166 nM; minimal effective dose ([1]; read-out: dose down to which the avoidance response is blocked in a dose dependant manner): ≤ 15 mg/kg; ED50 ([4]; Mus musculus, ip, read-out: ED50 for inhibition of apomorphine-induced stereotyped behavior): 18 mg/kg; ED50 for inhibition of apomorphine-induced stereotyped behavior ([4]; i.p., Dihydrochloride): 20.37 mg/kg
